# From the NIST ThermoML archive (doi:10.1021/je049544x)
# Numbers after ± are expanded uncertainties.
# Key:
# [1] = Liquid; for mass density / speed of sound: 298.15 K, 101.3 kPa; for speed of sound: Sing-around technique in a fixed-path interferometer
# [2] = refractive index (Na D-line) (dimensionless); conditions: 298.15 K; 101.33 kPa; Liquid; Standard Abbe refractometry
# [3] = xn = mol fraction of the nth substance listed; conditions: 298.15 K, 101.3 kPa, Liquid; for speed of sound: Sing-around technique in a fixed-path interferometer
# [4] = refractive index (Na D-line) (dimensionless); xn = mol fraction of the nth substance listed; conditions: 298.15 K, 101.3 kPa, Liquid, Standard Abbe refractometry
smiles,measurement,setting,value
CCOC(=O)OCC [diethyl carbonate],mass density,[1],969 ± 0.25 kg/m3
same,speed of sound,[1],1176.1 ± 1.2 m/s
same,vapor or sublimation pressure,[1]; 399.6 K,101.3 ± 0.3 kPa
same,refractive index,[2],1.38221 ± 0.00072
CCOC(=O)OCC [diethyl carbonate] + C=COC(C)=O,speed of sound,[3]; x2 = 0,1176.1 ± 1.2 m/s
same,mass density,[3]; x2 = 0,969 ± 0.25 kg/m3
same,refractive index,[4]; x2 = 0,1.38221 ± 0.00072
CCOC(=O)OCC [diethyl carbonate] + CO,speed of sound,[3]; x2 = 0,1176.1 ± 1.2 m/s
same,speed of sound,[3]; x2 = 0.063,1174.8 ± 1.2 m/s
same,speed of sound,[3]; x2 = 0.098,1174.1 ± 1.2 m/s
same,speed of sound,[3]; x2 = 0.159,1171.5 ± 1.2 m/s
same,speed of sound,[3]; x2 = 0.192,1169.9 ± 1.2 m/s
same,speed of sound,[3]; x2 = 0.251,1167 ± 1.2 m/s
same,speed of sound,[3]; x2 = 0.302,1164.3 ± 1.2 m/s
same,speed of sound,[3]; x2 = 0.371,1160.6 ± 1.2 m/s
same,speed of sound,[3]; x2 = 0.415,1158.1 ± 1.2 m/s
same,speed of sound,[3]; x2 = 0.453,1155.9 ± 1.2 m/s
same,speed of sound,[3]; x2 = 0.49,1153.8 ± 1.2 m/s
same,speed of sound,[3]; x2 = 0.543,1150.2 ± 1.2 m/s
same,speed of sound,[3]; x2 = 0.592,1146.9 ± 1.2 m/s
same,speed of sound,[3]; x2 = 0.655,1142.2 ± 1.2 m/s
same,speed of sound,[3]; x2 = 0.69,1139.5 ± 1.2 m/s
same,speed of sound,[3]; x2 = 0.75,1134.1 ± 1.2 m/s
same,speed of sound,[3]; x2 = 0.8,1129.2 ± 1.2 m/s
same,speed of sound,[3]; x2 = 0.848,1123.8 ± 1.2 m/s
same,speed of sound,[3]; x2 = 0.897,1117.8 ± 1.2 m/s
same,speed of sound,[3]; x2 = 0.948,1110.4 ± 1.2 m/s
same,mass density,[3]; x2 = 0,969 ± 0.25 kg/m3
same,mass density,[3]; x2 = 0.063,964.93 ± 0.26 kg/m3
same,mass density,[3]; x2 = 0.098,962.48 ± 0.26 kg/m3
same,mass density,[3]; x2 = 0.159,958.15 ± 0.27 kg/m3
same,mass density,[3]; x2 = 0.192,955.62 ± 0.27 kg/m3
same,mass density,[3]; x2 = 0.251,950.7 ± 0.28 kg/m3
same,mass density,[3]; x2 = 0.302,946.14 ± 0.29 kg/m3
same,mass density,[3]; x2 = 0.371,939.23 ± 0.3 kg/m3
same,mass density,[3]; x2 = 0.415,934.4 ± 0.31 kg/m3
same,mass density,[3]; x2 = 0.453,929.92 ± 0.32 kg/m3
same,mass density,[3]; x2 = 0.49,925.16 ± 0.34 kg/m3
same,mass density,[3]; x2 = 0.543,917.68 ± 0.35 kg/m3
same,mass density,[3]; x2 = 0.592,910.04 ± 0.36 kg/m3
same,mass density,[3]; x2 = 0.655,898.92 ± 0.38 kg/m3
same,mass density,[3]; x2 = 0.69,892 ± 0.4 kg/m3
same,mass density,[3]; x2 = 0.75,878.54 ± 0.42 kg/m3
same,mass density,[3]; x2 = 0.8,865.37 ± 0.45 kg/m3
same,mass density,[3]; x2 = 0.848,850.75 ± 0.47 kg/m3
same,mass density,[3]; x2 = 0.897,833.8 ± 0.51 kg/m3
same,mass density,[3]; x2 = 0.948,812.41 ± 0.55 kg/m3
same,refractive index,[4]; x2 = 0,1.38221 ± 0.00072
same,refractive index,[4]; x2 = 0.063,1.38098 ± 0.00072
same,refractive index,[4]; x2 = 0.098,1.38026 ± 0.00072
same,refractive index,[4]; x2 = 0.159,1.37901 ± 0.00072
same,refractive index,[4]; x2 = 0.192,1.37825 ± 0.00072
same,refractive index,[4]; x2 = 0.251,1.3769 ± 0.00072
same,refractive index,[4]; x2 = 0.302,1.37563 ± 0.00072
same,refractive index,[4]; x2 = 0.371,1.37345 ± 0.00072
same,refractive index,[4]; x2 = 0.415,1.37205 ± 0.00072
same,refractive index,[4]; x2 = 0.453,1.3705 ± 0.00072
same,refractive index,[4]; x2 = 0.49,1.36915 ± 0.00072
same,refractive index,[4]; x2 = 0.543,1.367 ± 0.00072
same,refractive index,[4]; x2 = 0.592,1.36457 ± 0.00072
same,refractive index,[4]; x2 = 0.655,1.36118 ± 0.00072
same,refractive index,[4]; x2 = 0.69,1.359 ± 0.00072
same,refractive index,[4]; x2 = 0.75,1.35486 ± 0.00072
same,refractive index,[4]; x2 = 0.8,1.3509 ± 0.00072
same,refractive index,[4]; x2 = 0.848,1.34641 ± 0.00072
same,refractive index,[4]; x2 = 0.897,1.34105 ± 0.00072
same,refractive index,[4]; x2 = 0.948,1.3344 ± 0.00072
CO [methanol],mass density,[1],786.56 ± 0.6 kg/m3
same,speed of sound,[1],1101.8 ± 1.2 m/s
same,vapor or sublimation pressure,[1]; 337.9 K,101.3 ± 0.3 kPa
same,refractive index,[2],1.32634 ± 0.00072
CO [methanol] + CCOC(=O)OCC,speed of sound,[3]; x1 = 1,1101.8 ± 1.2 m/s
same,mass density,[3]; x1 = 1,786.56 ± 0.6 kg/m3
same,refractive index,[4]; x1 = 1,1.32634 ± 0.00072
C=COC(C)=O [vinyl acetate],mass density,[1],925.59 ± 0.37 kg/m3
same,speed of sound,[1],1115.6 ± 1.2 m/s
same,vapor or sublimation pressure,[1]; 346.1 K,101.3 ± 0.4 kPa
same,refractive index,[2],1.39253 ± 0.00073
C=COC(C)=O [vinyl acetate] + CCOC(=O)OCC,speed of sound,[3]; x1 = 0.043,1174.2 ± 1.2 m/s
same,speed of sound,[3]; x1 = 0.105,1171.2 ± 1.2 m/s
same,speed of sound,[3]; x1 = 0.17,1167.9 ± 1.2 m/s
same,speed of sound,[3]; x1 = 0.193,1166.9 ± 1.2 m/s
same,speed of sound,[3]; x1 = 0.254,1163.6 ± 1.2 m/s
same,speed of sound,[3]; x1 = 0.299,1161.2 ± 1.2 m/s
same,speed of sound,[3]; x1 = 0.353,1158.2 ± 1.2 m/s
same,speed of sound,[3]; x1 = 0.407,1155.2 ± 1.2 m/s
same,speed of sound,[3]; x1 = 0.458,1152.3 ± 1.2 m/s
same,speed of sound,[3]; x1 = 0.507,1149.3 ± 1.2 m/s
same,speed of sound,[3]; x1 = 0.556,1146.4 ± 1.2 m/s
same,speed of sound,[3]; x1 = 0.598,1143.7 ± 1.2 m/s
same,speed of sound,[3]; x1 = 0.65,1140.4 ± 1.2 m/s
same,speed of sound,[3]; x1 = 0.697,1137.2 ± 1.2 m/s
same,speed of sound,[3]; x1 = 0.744,1134.1 ± 1.2 m/s
same,speed of sound,[3]; x1 = 0.803,1130.1 ± 1.2 m/s
same,speed of sound,[3]; x1 = 0.85,1126.7 ± 1.2 m/s
same,speed of sound,[3]; x1 = 0.901,1123.1 ± 1.2 m/s
same,speed of sound,[3]; x1 = 0.946,1119.8 ± 1.2 m/s
same,speed of sound,[3]; x1 = 1,1115.6 ± 1.2 m/s
same,mass density,[3]; x1 = 0.043,967.68 ± 0.25 kg/m3
same,mass density,[3]; x1 = 0.105,965.65 ± 0.26 kg/m3
same,mass density,[3]; x1 = 0.17,963.45 ± 0.26 kg/m3
same,mass density,[3]; x1 = 0.193,962.74 ± 0.27 kg/m3
same,mass density,[3]; x1 = 0.254,960.55 ± 0.27 kg/m3
same,mass density,[3]; x1 = 0.299,958.92 ± 0.28 kg/m3
same,mass density,[3]; x1 = 0.353,956.87 ± 0.28 kg/m3
same,mass density,[3]; x1 = 0.407,954.79 ± 0.29 kg/m3
same,mass density,[3]; x1 = 0.458,952.74 ± 0.3 kg/m3
same,mass density,[3]; x1 = 0.507,950.71 ± 0.3 kg/m3
same,mass density,[3]; x1 = 0.556,948.6 ± 0.31 kg/m3
same,mass density,[3]; x1 = 0.598,946.73 ± 0.31 kg/m3
same,mass density,[3]; x1 = 0.65,944.3 ± 0.32 kg/m3
same,mass density,[3]; x1 = 0.697,942.05 ± 0.32 kg/m3
same,mass density,[3]; x1 = 0.744,939.73 ± 0.33 kg/m3
same,mass density,[3]; x1 = 0.803,936.72 ± 0.34 kg/m3
same,mass density,[3]; x1 = 0.85,934.22 ± 0.34 kg/m3
same,mass density,[3]; x1 = 0.901,931.44 ± 0.35 kg/m3
same,mass density,[3]; x1 = 0.946,928.87 ± 0.36 kg/m3
same,mass density,[3]; x1 = 1,925.59 ± 0.37 kg/m3
same,refractive index,[4]; x1 = 0.043,1.3826 ± 0.00072
same,refractive index,[4]; x1 = 0.105,1.3832 ± 0.00072
same,refractive index,[4]; x1 = 0.17,1.38373 ± 0.00072
same,refractive index,[4]; x1 = 0.193,1.38396 ± 0.00072
same,refractive index,[4]; x1 = 0.254,1.38458 ± 0.00072
same,refractive index,[4]; x1 = 0.299,1.385 ± 0.00072
same,refractive index,[4]; x1 = 0.353,1.3855 ± 0.00072
same,refractive index,[4]; x1 = 0.407,1.38602 ± 0.00072
same,refractive index,[4]; x1 = 0.458,1.38655 ± 0.00072
same,refractive index,[4]; x1 = 0.507,1.38706 ± 0.00072
same,refractive index,[4]; x1 = 0.556,1.38757 ± 0.00072
same,refractive index,[4]; x1 = 0.598,1.38804 ± 0.00072
same,refractive index,[4]; x1 = 0.65,1.38859 ± 0.00072
same,refractive index,[4]; x1 = 0.697,1.38917 ± 0.00072
same,refractive index,[4]; x1 = 0.744,1.38968 ± 0.00072
same,refractive index,[4]; x1 = 0.803,1.39031 ± 0.00072
same,refractive index,[4]; x1 = 0.85,1.39087 ± 0.00072
same,refractive index,[4]; x1 = 0.901,1.39143 ± 0.00073
same,refractive index,[4]; x1 = 0.946,1.39197 ± 0.00073
same,refractive index,[4]; x1 = 1,1.39253 ± 0.00073
